Measured values reported in paper PMC10653547, “Synergistic effect of two antimicrobial peptides, BP203 and MAP-0403 J-2 with conventional antibiotics against colistin-resistant Escherichia coli and Klebsiella pneumoniae clinical isolates” (PLOS ONE, 2023).
Values belong to the compound of their own block, whether it stands above or below them.

Key:
[1] = tested on: colistin-resistant K. pneumoniae clinical isolates; assay: Disk diffusion antimicrobial susceptibility testing (CLSI); as to Interpreted results of disk diffusion: key: R: resistant; I: intermediate; SDD: susceptible-dose dependent; S: sensitive; assay type: cell-based, Klebsiella pneumoniae; details: for %Resistance: ten K. pneumoniae isolates, disk diffusion
Method: (§1) Ten non-duplicate clinical isolates of colistin-resistant E. coli (EC) and ten non-duplicate clinical isolates of colistin-resistant K. pneumoniae (KP) were obtained from the bacterial repository of the Division of Infectious Diseases and Tropical Medicine, Department of Medicine, Faculty of Medicine Siriraj Hospital, Mahidol University. The species identification was conducted through standard biochemical tests. Antimicrobial susceptibility testing was carried out using the disk diffusion method following CLSI guidelines. Additionally, the assessment of colistin resistance in all isolates was performed by broth microdilution following CLSI recommendations. […] The amino acid sequences of BP203 and MAP-0403 J-2 were retrieved from previous studies. These peptides are BP100 and MAP-0403 analogs, respectively. […] Antibiotic disks and defibrinated sheep blood were obtained from Oxoid (Basingstoke, UK). All culture media were purchased from Becton Dickinson (Frankin Lakes, NJ, USA). All chemicals were obtained from Sigma-Aldrich (St. Louis, MO, USA).

[2] = tested on: colistin-resistant E. coli clinical isolates; assay: Checkerboard assay for synergy testing; assay type: cell-based, Escherichia coli
Method: (§2) The synergistic activities of various two-antimicrobial combinations against colistin-resistant E. coli and K. pneumoniae isolates were evaluated using the checkerboard assay, which was performed in 96-well plates. […] Two-fold serial dilutions of peptides and antibiotics were independently prepared in CAMHB. Afterward, a mixture of different concentrations of the antibiotics and peptides was added to the wells of the microplates. Antibiotics and peptides were also dispended alone in the first row and the first column, respectively. Bacterial inoculum was added to the 96-well plate to achieve a final concentration of 5 × 10^5 CFU/mL. Then, plates were incubated at 37 °C for 20–24 h. MICs were recorded as the minimum concentration of antimicrobial agents without bacterial growth. The interaction between the antimicrobials was determined by calculating the fractional inhibitory concentration index (FICI) according to the formula: FICI = FIC(drug A) + FIC(drug B), where FIC = the MIC of the drug when in the combination/MIC of drug tested individually.

[3] = tested on: colistin-resistant K. pneumoniae clinical isolates; assay: Checkerboard assay for synergy testing; assay type: cell-based, Klebsiella pneumoniae
Method: as §2

[4] = tested on: colistin-resistant E. coli clinical isolates; assay: Disk diffusion antimicrobial susceptibility testing (CLSI); assay type: cell-based, Escherichia coli; details: for %Resistance: ten E. coli isolates, disk diffusion
Method: as §1

[5] = isolate EC-01, checkerboard Chloramphenicol+BP203
[6] = isolate EC-01, checkerboard Chloramphenicol+MAP-0403 J-2
[7] = isolate EC-02, checkerboard Chloramphenicol+BP203
[8] = isolate EC-02, checkerboard Chloramphenicol+MAP-0403 J-2
[9] = isolate EC-03, checkerboard Chloramphenicol+BP203
[10] = isolate EC-03, checkerboard Chloramphenicol+MAP-0403 J-2
[11] = isolate EC-04, checkerboard Chloramphenicol+BP203
[12] = isolate EC-05, checkerboard Chloramphenicol+BP203
[13] = isolate EC-05, checkerboard Chloramphenicol+MAP-0403 J-2
[14] = isolate EC-06, checkerboard Chloramphenicol+BP203
[15] = isolate EC-06, checkerboard Chloramphenicol+MAP-0403 J-2
[16] = isolate EC-07, checkerboard Chloramphenicol+BP203
[17] = isolate EC-07, checkerboard Chloramphenicol+MAP-0403 J-2
[18] = isolate EC-08, checkerboard Chloramphenicol+BP203
[19] = isolate EC-08, checkerboard Chloramphenicol+MAP-0403 J-2
[20] = isolate EC-09, checkerboard Chloramphenicol+BP203
[21] = isolate EC-09, checkerboard Chloramphenicol+MAP-0403 J-2
[22] = isolate EC-10, checkerboard Chloramphenicol+BP203
[23] = isolate EC-10, checkerboard Chloramphenicol+MAP-0403 J-2
[24] = isolate KP-01, checkerboard Chloramphenicol+BP203
[25] = isolate KP-01, checkerboard Chloramphenicol+MAP-0403 J-2
[26] = isolate KP-02, checkerboard Chloramphenicol+BP203
[27] = isolate KP-02, checkerboard Chloramphenicol+MAP-0403 J-2
[28] = isolate KP-03, checkerboard Chloramphenicol+BP203
[29] = isolate KP-03, checkerboard Chloramphenicol+MAP-0403 J-2
[30] = isolate KP-04, checkerboard Chloramphenicol+BP203
[31] = isolate KP-04, checkerboard Chloramphenicol+MAP-0403 J-2
[32] = isolate KP-05, checkerboard Chloramphenicol+BP203
[33] = isolate KP-05, checkerboard Chloramphenicol+MAP-0403 J-2
[34] = isolate KP-06, checkerboard Chloramphenicol+BP203
[35] = isolate KP-06, checkerboard Chloramphenicol+MAP-0403 J-2
[36] = isolate KP-07, checkerboard Chloramphenicol+BP203
[37] = isolate KP-07, checkerboard Chloramphenicol+MAP-0403 J-2
[38] = isolate KP-08, checkerboard Chloramphenicol+BP203
[39] = isolate KP-08, checkerboard Chloramphenicol+MAP-0403 J-2
[40] = isolate KP-09, checkerboard Chloramphenicol+BP203
[41] = isolate KP-09, checkerboard Chloramphenicol+MAP-0403 J-2
[42] = isolate KP-10, checkerboard Chloramphenicol+BP203
[43] = isolate KP-10, checkerboard Chloramphenicol+MAP-0403 J-2
[44] = isolate EC-01, checkerboard Ceftazidime+MAP-0403 J-2
[45] = isolate EC-02, checkerboard Ceftazidime+MAP-0403 J-2
[46] = isolate EC-03, checkerboard Ceftazidime+MAP-0403 J-2
[47] = isolate EC-04, checkerboard Ceftazidime+MAP-0403 J-2
[48] = isolate EC-05, checkerboard Ceftazidime+MAP-0403 J-2
[49] = isolate EC-06, checkerboard Ceftazidime+MAP-0403 J-2
[50] = isolate EC-07, checkerboard Ceftazidime+MAP-0403 J-2
[51] = isolate EC-08, checkerboard Ceftazidime+MAP-0403 J-2
[52] = isolate EC-09, checkerboard Ceftazidime+MAP-0403 J-2
[53] = isolate EC-10, checkerboard Ceftazidime+MAP-0403 J-2

MIC alone [2, 5]: 128 µg/mL
MIC combination [2, 5]: 1 µg/mL
MIC alone [2, 6]: 128 µg/mL
MIC combination [2, 6]: 64 µg/mL
MIC alone [2, 7]: 64 µg/mL
MIC combination [2, 7]: 32 µg/mL
MIC alone [2, 8]: 64 µg/mL
MIC combination [2, 8]: 32 µg/mL
MIC alone [2, 9]: 64 µg/mL
MIC combination [2, 9]: 32 µg/mL
MIC alone [2, 10]: 64 µg/mL
MIC combination [2, 10]: 16 µg/mL
MIC alone [2, 11]: 32 µg/mL
MIC combination [2, 11]: 1 µg/mL
MIC combination ([2]; isolate EC-04, checkerboard Chloramphenicol+MAP-0403 J-2): 128 µg/mL
MIC alone [2, 12]: 64 µg/mL
MIC combination [2, 12]: 32 µg/mL
MIC alone [2, 13]: 64 µg/mL
MIC combination [2, 13]: 32 µg/mL
MIC alone [2, 14]: 16 µg/mL
MIC combination [2, 14]: 4 µg/mL
MIC alone [2, 15]: 8 µg/mL
MIC combination [2, 15]: 4 µg/mL
MIC alone [2, 16]: 256 µg/mL
MIC combination [2, 16]: 64 µg/mL
MIC alone [2, 17]: 64 µg/mL
MIC combination [2, 17]: 32 µg/mL
MIC alone [2, 18]: 64 µg/mL
MIC combination [2, 18]: 32 µg/mL
MIC alone [2, 19]: 64 µg/mL
MIC combination [2, 19]: 16 µg/mL
MIC alone [2, 20]: 256 µg/mL
MIC combination [2, 20]: 64 µg/mL
MIC alone [2, 21]: 256 µg/mL
MIC combination [2, 21]: 64 µg/mL
MIC alone [2, 22]: 256 µg/mL
MIC combination [2, 22]: 32 µg/mL
MIC alone [2, 23]: 256 µg/mL
MIC combination [2, 23]: 64 µg/mL
MIC alone [3, 24]: 512 µg/mL
MIC combination [3, 24]: 128 µg/mL
MIC alone [3, 25]: 1020 µg/mL
MIC combination [3, 25]: 256 µg/mL
MIC alone [3, 26]: 512 µg/mL
MIC combination [3, 26]: 128 µg/mL
MIC alone [3, 27]: 512 µg/mL
MIC combination [3, 27]: 128 µg/mL
MIC alone [3, 28]: 8 µg/mL
MIC combination [3, 28]: 2 µg/mL
MIC alone [3, 29]: 8 µg/mL
MIC combination [3, 29]: 2 µg/mL
MIC alone [3, 30]: 8 µg/mL
MIC combination [3, 30]: 4 µg/mL
MIC alone [3, 31]: 8 µg/mL
MIC combination [3, 31]: 2 µg/mL
MIC alone [3, 32]: 4 µg/mL
MIC combination [3, 32]: 2 µg/mL
MIC alone [3, 33]: 1020 µg/mL
MIC combination [3, 33]: 256 µg/mL
MIC alone [3, 34]: 512 µg/mL
MIC combination [3, 34]: 128 µg/mL
MIC alone [3, 35]: 32 µg/mL
MIC combination [3, 35]: 8 µg/mL
MIC alone [3, 36]: 512 µg/mL
MIC combination [3, 36]: 128 µg/mL
MIC alone [3, 37]: 8 µg/mL
MIC combination [3, 37]: 4 µg/mL
MIC alone [3, 38]: 4 µg/mL
MIC combination [3, 38]: 1 µg/mL
MIC alone [3, 39]: 8 µg/mL
MIC combination [3, 39]: 4 µg/mL
MIC alone [3, 40]: 32 µg/mL
MIC combination [3, 40]: 4 µg/mL
MIC alone [3, 41]: 32 µg/mL
MIC combination [3, 41]: 16 µg/mL
MIC alone [3, 42]: 64 µg/mL
MIC combination [3, 42]: 8 µg/mL
MIC alone [3, 43]: 64 µg/mL
MIC combination [3, 43]: 4 µg/mL
SMILES: O=C(N[C@H](CO)[C@H](O)c1ccc([N+](=O)[O-])cc1)C(Cl)Cl [C, chloramphenicol]
Interpreted results of disk diffusion ([1]; KP-01): R
Interpreted results of disk diffusion ([1]; KP-02): R
Interpreted results of disk diffusion ([1]; KP-03): S
Interpreted results of disk diffusion ([1]; KP-04): S
Interpreted results of disk diffusion ([1]; KP-05): S
Interpreted results of disk diffusion ([1]; KP-06): R
Interpreted results of disk diffusion ([1]; KP-07): I
Interpreted results of disk diffusion ([1]; KP-08): S
Interpreted results of disk diffusion ([1]; KP-09): I
Interpreted results of disk diffusion ([1]; KP-10): R
%Resistance [1]: 40%
Interpreted results of disk diffusion ([4]; EC-01): R
Interpreted results of disk diffusion ([4]; EC-02): R
Interpreted results of disk diffusion ([4]; EC-03): R
Interpreted results of disk diffusion ([4]; EC-04): R
Interpreted results of disk diffusion ([4]; EC-05): R
Interpreted results of disk diffusion ([4]; EC-06): S
Interpreted results of disk diffusion ([4]; EC-07): R
Interpreted results of disk diffusion ([4]; EC-08): R
Interpreted results of disk diffusion ([4]; EC-09): R
Interpreted results of disk diffusion ([4]; EC-10): R
%Resistance [4]: 90%

SMILES: CC(C)(O/N=C(\C(=O)N[C@@H]1C(=O)N2C(C(=O)[O-])=C(C[n+]3ccccc3)CS[C@H]12)c1csc(N)n1)C(=O)O [CAZ, ceftazidime]
Interpreted results of disk diffusion ([1]; KP-01): R
Interpreted results of disk diffusion ([1]; KP-02): R
Interpreted results of disk diffusion ([1]; KP-03): R
Interpreted results of disk diffusion ([1]; KP-04): R
Interpreted results of disk diffusion ([1]; KP-05): R
Interpreted results of disk diffusion ([1]; KP-06): R
Interpreted results of disk diffusion ([1]; KP-07): R
Interpreted results of disk diffusion ([1]; KP-08): R
Interpreted results of disk diffusion ([1]; KP-09): R
Interpreted results of disk diffusion ([1]; KP-10): R
%Resistance [1]: 100%
MIC alone [2, 44]: 8 µg/mL
MIC combination [2, 44]: 0.5 µg/mL
MIC alone [2, 45]: 16 µg/mL
MIC combination [2, 45]: 4 µg/mL
MIC alone [2, 46]: 16 µg/mL
MIC combination [2, 46]: 1 µg/mL
MIC alone [2, 47]: 4 µg/mL
MIC combination [2, 47]: 1 µg/mL
MIC alone [2, 48]: 1 µg/mL
MIC combination [2, 48]: 0.0625 µg/mL
MIC alone [2, 49]: 16 µg/mL
MIC combination [2, 49]: 4 µg/mL
MIC alone [2, 50]: 16 µg/mL
MIC combination [2, 50]: 2 µg/mL
MIC alone [2, 51]: 1 µg/mL
MIC combination [2, 51]: 0.25 µg/mL
MIC alone [2, 52]: 32 µg/mL
MIC combination [2, 52]: 4 µg/mL
MIC alone [2, 53]: 16 µg/mL
MIC combination [2, 53]: 2 µg/mL
MIC combination ([3]; isolate KP-01, checkerboard Ceftazidime+MAP-0403 J-2): 16 µg/mL
MIC combination ([3]; isolate KP-02, checkerboard Ceftazidime+MAP-0403 J-2): 16 µg/mL
MIC combination ([3]; isolate KP-03, checkerboard Ceftazidime+MAP-0403 J-2): 512 µg/mL
MIC combination ([3]; isolate KP-04, checkerboard Ceftazidime+MAP-0403 J-2): 512 µg/mL
MIC combination ([3]; isolate KP-05, checkerboard Ceftazidime+MAP-0403 J-2): 512 µg/mL
MIC combination ([3]; isolate KP-06, checkerboard Ceftazidime+MAP-0403 J-2): 32 µg/mL
MIC combination ([3]; isolate KP-07, checkerboard Ceftazidime+MAP-0403 J-2): 256 µg/mL
MIC combination ([3]; isolate KP-08, checkerboard Ceftazidime+MAP-0403 J-2): 512 µg/mL
MIC combination ([3]; isolate KP-09, checkerboard Ceftazidime+MAP-0403 J-2): 512 µg/mL
MIC combination ([3]; isolate KP-10, checkerboard Ceftazidime+MAP-0403 J-2): 32 µg/mL
Interpreted results of disk diffusion ([4]; EC-01): R
Interpreted results of disk diffusion ([4]; EC-02): I
Interpreted results of disk diffusion ([4]; EC-03): R
Interpreted results of disk diffusion ([4]; EC-04): R
Interpreted results of disk diffusion ([4]; EC-05): S
Interpreted results of disk diffusion ([4]; EC-06): R
Interpreted results of disk diffusion ([4]; EC-07): I
Interpreted results of disk diffusion ([4]; EC-08): S
Interpreted results of disk diffusion ([4]; EC-09): I
Interpreted results of disk diffusion ([4]; EC-10): S
%Resistance [4]: 40%
